Several values for one entry are separate records, joined by “and”; a condition that tells them apart may be missing. Equal values may be shown once. Toxic doses and inconclusive results are not listed. Rule for the calls: active = survival T/C of 150% or more; inactive = T/C below 125% in these data. Non-standard residues stand in square brackets, D forms with d. Residues, ends and D or L forms follow the SMILES beside them. ξ: configuration not given here. *: point of attachment. Cbz = O=C(OCc1ccccc1)*; ξK = NCCCCC(N)C(=O)O
Test system: BDF1 mice, P388 leukemia ip, median survival T/C
Test: NCI In Vivo Anticancer Drug Screen. Data for tumor model P388 Leukemia (intraperitoneal) in B6D2F1 (BDF1) mice
Settings: endpoint: median survival time, higher = longer survival
Outline: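 Survival ratio, drug arm over vehicle arm, in mice with a transplanted tumour.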

[1] = dose: 100.0 mg/kg/injection, schedule: Q01DX009 (ip), vehicle: Klucel (hydroxypropylcellulose) (HPC)
[2] = dose: 100.0 mg/kg/injection, schedule: Q04DX003 (ip), vehicle: saline sonified
[3] = dose: 200.0 mg/kg/injection, schedule: Q01DX009 (ip), vehicle: Klucel (hydroxypropylcellulose) (HPC)
[4] = dose: 200.0 mg/kg/injection, schedule: Q04DX003 (ip), vehicle: saline sonified
[5] = dose: 400.0 mg/kg/injection, schedule: Q01DX009 (ip), vehicle: Klucel (hydroxypropylcellulose) (HPC)
[6] = dose: 100.0 mg/kg/injection, schedule: Q04DX003 (ip), vehicle: Klucel (hydroxypropylcellulose) (HPC)
[7] = dose: 200.0 mg/kg/injection, schedule: Q04DX003 (ip), vehicle: Klucel (hydroxypropylcellulose) (HPC)
[8] = dose: 100.0 mg/kg/injection, schedule: Q04DX003 (ip), vehicle: saline with Tween-80
[9] = dose: 200.0 mg/kg/injection, schedule: Q04DX003 (ip), vehicle: saline with Tween-80
[10] = dose: 50.0 mg/kg/injection, schedule: Q01DX005 (ip), vehicle: saline with Tween-80
[11] = dose: 100.0 mg/kg/injection, schedule: Q01DX005 (ip), vehicle: saline with Tween-80
[12] = dose: 200.0 mg/kg/injection, schedule: Q01DX005 (ip), vehicle: saline with Tween-80
[13] = dose: 100.0 mg/kg/injection, schedule: Q04DX003 (ip), vehicle: saline
[14] = dose: 50.0 mg/kg/injection, schedule: Q01DX009 (ip), vehicle: saline with Tween-80
[15] = dose: 200.0 mg/kg/injection, schedule: Q01DX009 (ip), vehicle: saline with Tween-80
[16] = dose: 100.0 mg/kg/injection, schedule: Q01DX009 (ip), vehicle: saline with Tween-80
[17] = dose: 50.0 mg/kg/injection, schedule: Q01DX009 (ip), vehicle: saline
[18] = dose: 100.0 mg/kg/injection, schedule: Q01DX009 (ip), vehicle: saline
[19] = dose: 200.0 mg/kg/injection, schedule: Q01DX009 (ip), vehicle: saline

Measured: T/C

O=C(/C=C\c1ccc2c(c1)OCO2)/C=C/c1ccc2c(c1)OCO2
inactive: [1] 104 % of control | [2] 100 % of control | [3] 100 % of control | [4] 109 % of control | [5] 95 % of control | dose: 400.0 mg/kg/injection, schedule: Q04DX003 (ip), vehicle: saline sonified 100 % of control

Cc1ccc(S(=O)(=O)OCC2C3C=CC(C3)C2COS(=O)(=O)c2ccc(C)cc2)cc1 (centres undefined)
inactive: [1] 86 % of control | [6] 86 % of control | [3] 104 % of control | [7] 90 % of control | [5] 100 % of control | dose: 400.0 mg/kg/injection, schedule: Q04DX003 (ip), vehicle: Klucel (hydroxypropylcellulose) (HPC) 90 % of control

COC(=O)c1[nH]c(=O)[nH]c(=O)c1F
inactive: dose: 25.0 mg/kg/injection, schedule: Q04DX003 (ip), vehicle: saline with Tween-80 113 % of control | [8] 122 % of control | [9] 90 % of control

CCOC(=O)CCN(CCCN(C)C)c1cc(O)c2c(c1O)C(=O)c1ccccc1C2=O
inactive: [10] 89 % of control | [11] 103 % of control | [12] 108 % of control

CNC(CCc1ccccc1)C(=O)O (centres undefined)
inactive: dose: 50.0 mg/kg/injection, schedule: Q04DX003 (ip), vehicle: saline sonified 95 % of control | [2] 91 % of control | [4] 91 % of control

[Cl][Co][Cl].[NH-]CCN1CC1
inactive: dose: 25.0 mg/kg/injection, schedule: Q04DX003 (ip), vehicle: saline 103 % of control | dose: 50.0 mg/kg/injection, schedule: Q04DX003 (ip), vehicle: saline 107 % of control | [13] 103 % of control

N.N.N.NC(Cc1cnc[nH]1)C(=O)[O-].O=[N+]([O-])[O-].[Co+3] (centres undefined)
inactive: dose: 2.0 mg/kg/injection, schedule: Q01DX009 (ip), vehicle: saline 89 % of control | dose: 4.0 mg/kg/injection, schedule: Q01DX009 (ip), vehicle: saline 95 % of control and 110 % of control and 113 % of control | dose: 8.0 mg/kg/injection, schedule: Q01DX009 (ip), vehicle: saline 100 % of control and 110 % of control | dose: 20.0 mg/kg/injection, schedule: Q01DX009 (ip), vehicle: saline 120 % of control | dose: 25.0 mg/kg/injection, schedule: Q01DX009 (ip), vehicle: saline 90 % of control

CC12CCC(Cl)CC1=CCC1C2CCC2(C)C1CCCN2CCCl (centres undefined)
inactive: dose: 12.5 mg/kg/injection, schedule: Q01DX001 (ip), vehicle: saline with Tween-80 105 % of control | dose: 12.5 mg/kg/injection, schedule: Q01DX001 (ip), vehicle: saline 102 % of control | dose: 25.0 mg/kg/injection, schedule: Q01DX001 (ip), vehicle: saline with Tween-80 113 % of control | dose: 25.0 mg/kg/injection, schedule: Q01DX001 (ip), vehicle: saline 117 % of control

Cn1c(=O)c2c(c3ccccc31)Oc1oc3ccc4ccccc4c3c(=O)c1C2
inactive: [14] 91 % of control | [15] 94 % of control

COc1ccc(OC)c(NC=O)c1
inactive: dose: 25.0 mg/kg/injection, schedule: Q01DX009 (ip), vehicle: saline with Tween-80 97 % of control | [16] 97 % of control

c1ccc(Cn2ccnc2)cc1
inactive: dose: 3.12 mg/kg/injection, schedule: Q01DX009 (ip), vehicle: water 87 % of control | dose: 6.25 mg/kg/injection, schedule: Q01DX009 (ip), vehicle: water 92 % of control | dose: 12.5 mg/kg/injection, schedule: Q01DX009 (ip), vehicle: water 87 % of control | dose: 25.0 mg/kg/injection, schedule: Q01DX009 (ip), vehicle: water 99 % of control | dose: 50.0 mg/kg/injection, schedule: Q01DX009 (ip), vehicle: water 100 % of control | dose: 100.0 mg/kg/injection, schedule: Q01DX009 (ip), vehicle: water 86 % of control

CCCCC(CC)C1NCCO1 (centres undefined)
inactive: [14] 103 % of control | [8] 110 % of control | [15] 92 % of control | [9] 115 % of control | dose: 400.0 mg/kg/injection, schedule: Q04DX003 (ip), vehicle: saline with Tween-80 115 % of control

Cn1ccoc1=NC1CCCCC1
inactive: dose: 50.0 mg/kg/injection, schedule: Q04DX003 (ip), vehicle: saline with Tween-80 100 % of control | [8] 100 % of control | [9] 109 % of control

Cc1cc(N2CCCCC2)nc(N2CCCCC2)c1C#N
inactive: [10] 86 % of control | [11] 86 % of control | [12] 96 % of control

Cc1c[n+]2c3ccccc3c3ccccc3c2s1
inactive: dose: 1.5 mg/kg/injection, schedule: Q01DX009 (ip), vehicle: Klucel (hydroxypropylcellulose) (HPC) 95 % of control | dose: 2.5 mg/kg/injection, schedule: Q01DX009 (ip), vehicle: Klucel (hydroxypropylcellulose) (HPC) 100 % of control | dose: 3.0 mg/kg/injection, schedule: Q01DX009 (ip), vehicle: Klucel (hydroxypropylcellulose) (HPC) 90 % of control | dose: 5.0 mg/kg/injection, schedule: Q01DX009 (ip), vehicle: Klucel (hydroxypropylcellulose) (HPC) 122 % of control | dose: 6.0 mg/kg/injection, schedule: Q01DX009 (ip), vehicle: Klucel (hydroxypropylcellulose) (HPC) 86 % of control | dose: 10.0 mg/kg/injection, schedule: Q01DX009 (ip), vehicle: Klucel (hydroxypropylcellulose) (HPC) 118 % of control | dose: 10.0 mg/kg/injection, schedule: Q04DX003 (ip), vehicle: Klucel (hydroxypropylcellulose) (HPC) 118 % of control | dose: 20.0 mg/kg/injection, schedule: Q04DX003 (ip), vehicle: Klucel (hydroxypropylcellulose) (HPC) 95 % of control | dose: 80.0 mg/kg/injection, schedule: Q04DX003 (ip), vehicle: Klucel (hydroxypropylcellulose) (HPC) 90 % of control | [7] 90 % of control

CCOC(=O)c1cc(-c2ccccc2)[nH]c1-c1ccccc1
inactive: [17] 96 % of control | [18] 100 % of control | [19] 98 % of control

CSCCC(NC(=O)NC(CCSC)C(=O)Oc1ccc([N+](=O)[O-])cc1)C(=O)Oc1ccc([N+](=O)[O-])cc1 (centres undefined)
inactive: [14] 87 % of control | [16] 96 % of control | [15] 112 % of control

Cc1ccc(NCC(O)CN2CCOCC2)cc1 (centres undefined)
inactive: [6] 108 % of control

NC(=O)CNCCS(=O)(=O)O
inactive: [18] 91 % of control | [13] 100 % of control | [19] 87 % of control | dose: 200.0 mg/kg/injection, schedule: Q04DX003 (ip), vehicle: saline 109 % of control | dose: 400.0 mg/kg/injection, schedule: Q04DX003 (ip), vehicle: saline 104 % of control

C[N+](C)(Cn1ncc2cc([N+](=O)[O-])ccc21)Cn1ncc2cc([N+](=O)[O-])ccc21
inactive: [8] 113 % of control | [9] 104 % of control

Cc1nnc2ncccn12
inactive: [17] 96 % of control and 102 % of control and 106 % of control | [18] 97 % of control and 102 % of control (2×) | [19] 115 % of control | dose: 400.0 mg/kg/injection, schedule: Q01DX009 (ip), vehicle: saline 93 % of control

O=C1OC(=C(c2ccccc2)c2ccccc2)c2ccccc21
inactive: dose: 50.0 mg/kg/injection, schedule: Q01DX009 (ip), vehicle: Klucel (hydroxypropylcellulose) (HPC) 100 % of control | [1] 100 % of control | [3] 100 % of control

Cc1ccc2c(c1)nc1c3ccccc3nc(-c3ccccc3N)n21
inactive: [16] 97 % of control | [15] 115 % of control | dose: 400.0 mg/kg/injection, schedule: Q01DX009 (ip), vehicle: saline with Tween-80 108 % of control

NCC(=O)NC(CCCCNC(=O)OCc1ccccc1)C(=O)O (centres undefined) (H-Gly-[ξK](Cbz)-OH)
inactive: dose: 12.5 mg/kg/injection, schedule: Q01DX005 (ip), vehicle: saline with Tween-80 106 % of control | dose: 25.0 mg/kg/injection, schedule: Q01DX005 (ip), vehicle: saline with Tween-80 104 % of control

COc1cc2c(c3c1c(=O)c1ccccc1n3C)C=CC(C)(C)O2
inactive: dose: 12.5 mg/kg/injection, schedule: Q01DX010 (ip), vehicle: saline 100 % of control | dose: 25.0 mg/kg/injection, schedule: Q01DX010 (ip), vehicle: saline 90 % of control | dose: 50.0 mg/kg/injection, schedule: Q01DX010 (ip), vehicle: saline 90 % of control | dose: 100.0 mg/kg/injection, schedule: Q01DX010 (ip), vehicle: saline 90 % of control

From PubChem BioAssay AID328 (DTP/NCI, 2004)
